According to patent publication US20080071116A1, “Modulators of Lysophosphatidic Acid (Lpa) Signaling and the Use Thereof” (THE BOARD OF REGENTS OF THE UNIVERSITY OF TEXAS SYSTEM, priority 2004, published 2008):

Columns and labels:
S1P3 receptor = target: T1, S1P3 receptor (Homo sapiens, UniProt Q99500); assay: GTP[γ-35S] binding assay, HEK293 T membranes, S1P3 control; type: biochemical; conditions: cells transfected with S1P3, negative control, FIG. 59D
T1 construct: expressed in transfected cells; host or cells: HEK293 T cells (crude microsomal membranes)
T1 sequence (Q99500 whole entry): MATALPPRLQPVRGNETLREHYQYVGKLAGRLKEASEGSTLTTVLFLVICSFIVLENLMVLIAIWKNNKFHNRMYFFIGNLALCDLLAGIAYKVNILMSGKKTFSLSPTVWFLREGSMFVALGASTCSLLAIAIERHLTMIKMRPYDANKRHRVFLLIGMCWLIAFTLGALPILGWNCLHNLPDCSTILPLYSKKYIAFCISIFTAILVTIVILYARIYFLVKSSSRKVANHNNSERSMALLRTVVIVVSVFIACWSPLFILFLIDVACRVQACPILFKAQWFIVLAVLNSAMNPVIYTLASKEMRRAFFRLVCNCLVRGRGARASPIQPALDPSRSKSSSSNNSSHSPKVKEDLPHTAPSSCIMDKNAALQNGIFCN
Method: (§1) OMPT also enhances GTP [γ-^35S] binding in the cell membrane of HEK293 T cells expressing LPA3. The procedures for these GTP [γ-^35S] binding assays involve co-transfection of HEK293 T cells with expression vectors encoding one of the receptors for LPA (LPA1, LPA2, or LPA3) or S1P (S1P3/Edg3) by calcium phosphate precipitation, together with plasmids encoding three G proteins (rat Gi2α, cow β1, and cow γ2). After about 48 hours, cells were harvested and crude microsomal membranes were prepared. Membranes containing about 5 μg of protein were incubated in 0.1 ml of GTP-binding buffer (50 mM Hepes, 100 mM NaCl, 10 mM MgCl2, pH7.5) having 5 μg of saponin, 0.1% fatty acid-free BSA, 10 μM GDP, 0.1 nM GTP[γ-^35S] (1200 Ci/mmole) together with indicated concentrations of LPA or OMPT for about 30 min at 30° C. Membranes were collected using a 96-well Brandel Cell Harvester (Gaithersburg, Md.), and bound radionuclide was determined using a Packard TopCount liquid scintillation counter.

[1] = test system: chimera receptor, LPA1/LPA2; assay: calcium mobilization in Sf9 cells expressing LPA1/LPA2 chimera receptor; type: cell-based; conditions: FIG. 58C
LPA3 receptor = target: T2, LPA3 receptor (Homo sapiens, UniProt Q9UBY5); assay: GTP[γ-35S] binding assay, HEK293 T membranes, LPA3; type: biochemical; conditions: HEK293 transfected with LPA3, FIG. 59C
T2 construct: expressed in transfected cells; host or cells: HEK293 T cells (crude microsomal membranes)
T2 sequence (Q9UBY5 whole entry): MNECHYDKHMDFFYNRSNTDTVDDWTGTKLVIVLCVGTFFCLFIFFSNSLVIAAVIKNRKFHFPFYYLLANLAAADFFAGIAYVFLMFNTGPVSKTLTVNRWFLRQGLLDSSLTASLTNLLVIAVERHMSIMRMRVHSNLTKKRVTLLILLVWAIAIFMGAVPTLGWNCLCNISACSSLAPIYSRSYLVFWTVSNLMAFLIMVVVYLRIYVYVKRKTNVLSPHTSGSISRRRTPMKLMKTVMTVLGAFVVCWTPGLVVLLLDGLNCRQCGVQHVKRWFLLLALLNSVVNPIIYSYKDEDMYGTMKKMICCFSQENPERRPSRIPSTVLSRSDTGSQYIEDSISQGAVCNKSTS
T2 sequence (P04897 2-355 partner limits assumed): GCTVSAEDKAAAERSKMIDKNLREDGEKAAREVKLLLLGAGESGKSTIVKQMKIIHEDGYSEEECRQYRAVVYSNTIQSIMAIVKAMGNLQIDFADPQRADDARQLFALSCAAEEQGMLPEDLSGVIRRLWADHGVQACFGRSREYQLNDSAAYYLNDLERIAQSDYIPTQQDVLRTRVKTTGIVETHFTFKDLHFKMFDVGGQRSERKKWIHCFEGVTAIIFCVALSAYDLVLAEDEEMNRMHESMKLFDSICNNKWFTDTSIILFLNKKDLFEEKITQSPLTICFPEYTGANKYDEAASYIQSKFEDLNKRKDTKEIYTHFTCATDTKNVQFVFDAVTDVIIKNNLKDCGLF
T2 sequence (P62871 2-340 partner limits assumed): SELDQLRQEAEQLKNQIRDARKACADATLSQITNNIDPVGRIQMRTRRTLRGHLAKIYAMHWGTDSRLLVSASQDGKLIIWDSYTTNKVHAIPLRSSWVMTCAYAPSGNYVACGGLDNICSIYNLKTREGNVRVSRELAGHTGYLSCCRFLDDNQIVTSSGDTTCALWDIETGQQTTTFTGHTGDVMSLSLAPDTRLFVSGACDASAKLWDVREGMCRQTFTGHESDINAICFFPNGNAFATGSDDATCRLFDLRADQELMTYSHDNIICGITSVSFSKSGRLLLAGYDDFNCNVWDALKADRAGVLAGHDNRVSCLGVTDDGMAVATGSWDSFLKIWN
T2 sequence (P63212 2-68 partner limits assumed): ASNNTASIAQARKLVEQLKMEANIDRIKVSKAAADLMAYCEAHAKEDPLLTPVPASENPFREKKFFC
Method: as §1

OVCAR3 cells = assay: calcium mobilization assay in ovarian cancer OVCAR3 cells; type: cell-based, human; conditions: Homo sapiens, OVCAR-3; OVCAR3 cells; 95% confidence about 7.0 to about 11.5 nM
Method: (§2) The procedures for these calcium mobilization assays are as followed: OVCAR3 cells and PC-3 cells were cultured in RPMI 1640 medium with 10% FBS (fetal bovine serum). HT29 cells were cultured in DMEM (high glucose) medium with 10% FBS. All cells were cultured at about 37° C. in a humidified atmosphere with 5% CO2. After starvation in serum-free medium for about 12-24 hours, cells were harvested and loaded with about 1 μM of Indo-1 AM in serum-free medium for about 45 min at 37° C. Cells were washed in PBS and resuspended at 2×10^6 cells/ml in a [Ca^2+]i assay buffer (Sodium chloride, NaCl, about 140 mM, potassium chloride, KCl, about 2 mM, magnesium chloride, MgCl2, about 1 mM, calcium chloride, CaCl2, about 2 mM, in about 25 mM HEPES buffer at pH 7.4 with about 10 mM of glucose). Cytoplasmic [Ca^2+]i was determined at an excitation wavelength of about 331 nm and an emission wavelength of 410 nm using a fluorescence spectrophotometer (Hitachi, F-4000). Approximately 3×10^6 cells were used for [Ca^2+]l determination in a stirred quartz cuvette kept at about 37° C. OMPT or 18:1 LPA was dissolved in about 0.1% BSA/PBS solution and applied immediately to the cells. To test other LPA derivatives of the invention, cells were exposed to the derivatives for about 3 minutes or for a period of various times in time course related experiments before a LPA agonist, such as 18:1 LPA, OMPT, or other LPAs was applied into the cuvette.
(§3) The concentration of calcium mobilization giving the half-maximal response (EC50) was obtained from the concentration-response curve fitted to a sigmoidal logistic equation, with the maximal calcium response set to 100% using the GraphPad Prism. Maximal response value is expressed as mean +/−s.e.m. EC50 value is expressed with 95% confidence.

AKT = AKT phosphorylation immunoblot in prostate cancer cells; type: cell-based, human; conditions: PC-3 and DU145 cells
Method: (§4) The cells were then lysed in SDA sample buffer or ice-cold X-100 lysis buffer (1% Triton X-100, 50 mM HEPES [pH7.4], 150 mM NaCl, 1.5 mM MgCl2, 1 mM EGTA, 10% glycerol, 100 mM NaF, 10 mM Na pyrophosphate, and 1 mM aprotinin). Total cellular protein was resolved by SDS/PAGE, transferred to immobilon [poly (vinylidene difluoride)], and immunoblotted with antibodies following the protocols provided by manufactures. Immunocomplexes were visualized with an enhanced chemiluminescence detection kit (Amersham Pharmacia) using horseradish peroxidase-conjugated secondary antibodies (Bio-Rad).

ERK1/2 = ERK1/2 (p42/p44-MAPK) phosphorylation immunoblot in prostate cancer cells; type: cell-based, human; conditions: PC-3 and DU145 cells
Method: as §4

[2] = test system: vasodilator-stimulated protein (VASP); assay: VASP phosphorylation in PC-3 cells; type: cell-based, human
Method: as §4
To determine the mechanisms regulating LPA-induced cell migration, actin filament binding proteins that link receptor signaling to lamellipodia formation were evaluated.

PC-3 cells = assay: cellular proliferation and growth factor withdrawal-induced apoptosis; type: cell-based, human
HT29 cells = assay: calcium mobilization assay in colon cancer HT29 cells; type: cell-based; conditions: HT29 cells
Method: as §2, §3

LPA1 receptor [3] = target: T3, LPA1 receptor (Homo sapiens, UniProt Q92633); assay: GTP[γ-35S] binding assay, HEK293 T membranes, LPA1; type: biochemical; parameters: expressed in transfected cells; host or cells: HEK293 T cells (crude microsomal membranes); conditions: HEK293 transfected with LPA1, FIG. 59A
T3 sequence (Q92633 whole entry): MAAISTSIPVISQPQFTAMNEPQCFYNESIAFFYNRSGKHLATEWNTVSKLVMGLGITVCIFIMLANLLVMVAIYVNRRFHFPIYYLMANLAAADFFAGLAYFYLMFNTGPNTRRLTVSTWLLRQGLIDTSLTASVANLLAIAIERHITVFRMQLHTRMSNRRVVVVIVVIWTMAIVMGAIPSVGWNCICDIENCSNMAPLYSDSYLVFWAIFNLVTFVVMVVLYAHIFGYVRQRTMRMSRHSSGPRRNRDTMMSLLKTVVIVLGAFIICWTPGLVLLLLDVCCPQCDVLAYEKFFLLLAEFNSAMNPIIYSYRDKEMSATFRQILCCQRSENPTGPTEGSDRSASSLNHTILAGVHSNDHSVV
Method: as §1

LPA1 receptor [4] = target: T3, LPA1 receptor; assay: HA-Erk1 phosphorylation in HEK 293 T cells transfected with LPA1; type: cell-based; parameters: FLAG; expressed in transfected cells; host or cells: HEK 293 T cells; conditions: LPA1 transfected HEK 293 T; 0.01, 0.1, or 1 μM
From the text: We have also tested kinase activation by the LPA3 receptor subtype using OMPT as a tool. We determined whether activation of the LPA3 receptor by OMPT can be linked to ERK activation (related to MAP kinase signaling pathway) in mammalian cells, HEK 293 T cells, by co-transfecting hemagglutinin (HA)-tagged Erk1 (HA-Erk1) with either a control vector or an expression vector having LPA1, LPA2, or LPA3. […] There is no phosphorylation of HA-Erk1 at lower concentration of LPA or OMPT in the absence of LPA receptors. […] Thus, the data confirmed that OMPT, an LPA derivative, is a selective agonist for LPA3 receptor subtype, capable of inducing MAPK activation.

## CCCCCCCC/C=C\CCCCCCCC(=O)OCC(COP(O)(O)=S)OC (racemic) [OMPT, 1-oleoyl-sn2-O-methyl-rac-glycero-3-phosphothionate]
S1P3 receptor
  activation in GTP[γ-35S] binding assay: does not activate
[1]
  calcium mobilization: did not induce calcium mobilization
LPA3 receptor
  activation in GTP[γ-35S] binding assay: activates
OVCAR3 cells
  EC50: ~9 nM
AKT
  activation of AKT: efficiently activates
ERK1/2
  activation of p42/p44-MAPK: efficiently activates
[2]
  induction of VASP phosphorylation at Ser157 PKA site: Neither OMPT nor EGF increased phosphorylation of VASP
PC-3 cells
  cellular proliferation and prevention of growth factor withdrawal-induced apoptosis: increase cellular proliferation and prevent growth factor withdrawal-induced apoptosis
HT29 cells; FIG. 3
  stimulation of calcium mobilization: but not OMPT, stimulates calcium mobilization
HT29 cells; Homo sapiens, HT-29
  EC50: < 1000 nM
LPA1 receptor [3]
  activation in GTP[γ-35S] binding assay: does not activate
LPA1 receptor [4]
  HA-Erk1 phosphorylation: did not increase HA-Erk1 phosphorylation
